Measurements reported in patent US20090137577A1, “HETEROCYCLIC COMPOUNDS” (Pfizer Inc., priority 2007, published 2009).

Target: T1, mGluR2 receptor (metabotropic glutamate receptor 2) (Homo sapiens, UniProt Q14416)
T1 construct: expressed in transfected cells
Assay: mGluR2 potentiator screen (FLIPR, EC10-EC20 glutamate challenge);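 also: HEK cells stably expressing human mGluR2 with GL15 G protein, Fluo-4 calcium fluorescence read on FLIPR, compounds added before an EC10-EC20 glutamate challenge to detect potentiation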
Type: cell-based
Conditions: geometric mean; read-out: mGluR 2 EC50 (geometric mean)

T1 sequence (Q14416 19-872, species assumed): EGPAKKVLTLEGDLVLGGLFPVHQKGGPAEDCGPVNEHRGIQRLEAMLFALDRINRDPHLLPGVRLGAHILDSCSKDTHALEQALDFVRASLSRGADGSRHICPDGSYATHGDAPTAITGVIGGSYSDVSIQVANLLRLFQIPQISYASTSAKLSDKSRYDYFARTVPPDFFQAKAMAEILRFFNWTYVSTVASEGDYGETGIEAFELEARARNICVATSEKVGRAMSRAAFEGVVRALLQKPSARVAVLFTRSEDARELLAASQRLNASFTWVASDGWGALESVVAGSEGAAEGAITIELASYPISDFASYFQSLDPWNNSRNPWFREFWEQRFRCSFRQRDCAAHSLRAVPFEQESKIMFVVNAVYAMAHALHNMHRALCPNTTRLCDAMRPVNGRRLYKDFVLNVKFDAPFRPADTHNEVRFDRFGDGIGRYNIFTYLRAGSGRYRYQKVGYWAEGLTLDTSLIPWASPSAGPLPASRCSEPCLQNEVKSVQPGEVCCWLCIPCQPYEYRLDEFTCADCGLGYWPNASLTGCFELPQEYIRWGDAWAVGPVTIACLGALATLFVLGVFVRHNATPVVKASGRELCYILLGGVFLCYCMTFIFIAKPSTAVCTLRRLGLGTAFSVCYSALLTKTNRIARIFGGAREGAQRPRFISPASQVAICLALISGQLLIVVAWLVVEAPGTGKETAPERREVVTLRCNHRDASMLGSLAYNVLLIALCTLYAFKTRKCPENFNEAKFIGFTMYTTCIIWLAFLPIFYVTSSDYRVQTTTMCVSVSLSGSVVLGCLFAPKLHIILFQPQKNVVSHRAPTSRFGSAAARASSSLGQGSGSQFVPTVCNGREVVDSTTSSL

SMILES | EC50
C[C@@H]1CN(Cc2ccc(-c3ccc(Cl)cc3F)cc2)C(=O)O1 [Example 256] | < 39.8 nM
Cc1ccc(-c2ccc(CN3C[C@@H](C)OC3=O)cn2)c(F)c1 [Example 257] | 429 nM
C[C@@H]1CN(Cc2ccc(-c3ccc(C(F)(F)F)cc3F)nc2)C(=O)O1 [Example 258] | 205 nM
COc1ccc(F)c(-c2ccc(CN3C[C@@H](C)OC3=O)cn2)c1 [Example 260] | 858 nM
COc1ccc(F)c(F)c1-c1ccc(CN2C[C@@H](C)OC2=O)cn1 [Example 263] | 1370 nM
C[C@@H]1CN(Cc2ccc(-c3ccc(C(F)(F)F)cc3)nc2)C(=O)O1 [Example 265] | 1100 nM
Cc1cc(-c2ccc(CN3C[C@@H](C)OC3=O)cn2)ccc1F [Example 271] | 475 nM
C[C@@H]1CN(Cc2ccc(-c3ccc(C(F)(F)F)cc3Cl)cc2)C(=O)O1 [Example 272] | 20.1 nM
C[C@@H]1CN(Cc2ccc(-c3ccc(C(F)(F)F)cc3C(F)(F)F)cc2)C(=O)O1 [Example 275] | 47.4 nM
C[C@@H]1CN(Cc2ccc(-c3ccc(C(F)(F)F)cc3C(F)(F)F)nc2)C(=O)O1 [Example 276] | 788 nM
CC(C)Oc1ccc(-c2ccc(CN3C[C@@H](C)OC3=O)cc2)cc1F [Example 277] | 53.1 nM
CC(C)Oc1ccc(-c2ccc(CN3C[C@@H](C)OC3=O)cn2)c(F)c1 [Example 279] | 159 nM
CC(C)Oc1ccc(-c2ccc(CN3C[C@@H](C)OC3=O)cc2)c(Cl)c1 [Example 280] | < 15.4 nM
CC(C)Oc1ccc(-c2ccc(CN3C[C@@H](C)OC3=O)cc2)c(F)c1 [Example 281] | 8.14 nM
COc1ccc(C(C)C)cc1-c1ccc(CN2C[C@@H](C)OC2=O)cn1 [Example 282] | 1470 nM
C[C@@H]1CN(Cc2ccc(-c3ccc(F)cc3F)c(F)c2)C(=O)O1 [Example 288] | 36.9 nM
C[C@@H]1CN(Cc2ccc(-c3cccc(F)c3F)c(F)c2)C(=O)O1 [Example 289] | 93.7 nM
Cc1cc(F)ccc1-c1ccc(CN2C[C@@H](C)OC2=O)cc1F [Example 290] | 130 nM

SMILES | EC50
C[C@@H]1CN(Cc2ccc(-c3ccc(C(F)(F)F)cc3F)c(F)c2)C(=O)O1 [Example 292] | 56 nM
COc1ccc(-c2ccc(CN3C[C@@H](C)OC3=O)cc2F)c(F)c1F [Example 293] | < 59.9 nM
C[C@@H]1CN(Cc2ccc(-c3cnc4ccccc4c3)c(F)c2)C(=O)O1 [Example 294] | 327 nM
C[C@@H]1CN(Cc2cnc(-c3cccc(F)c3F)c(F)c2)C(=O)O1 [Example 298, (5R)-3-{[6-(2,3-Difluorophenyl)-5-fluoropyridin-3-yl]methyl}-5-methyl-1,3-oxazolidin-2-one] | 1360 nM
Cc1cc(CN2C[C@@H](C)OC2=O)ccc1-c1ccc(F)cc1F [Example 299, (5R)-3-[(2′,4′-Difluoro-2-methylbiphenyl-4-yl)methyl]-5-methyl-1,3-oxazolidin-2-one] | 167 nM
C[C@@H]1CN(Cc2ccc(CN3CCc4cc(Cl)ccc43)cc2)C(=O)O1 [Example 300, (5R)-3-{4-[(5-Chloro-2,3-dihydro-1H-indol-1-yl)methyl]benzyl}-5-methyl-1,3-oxazolidin-2-one] | 94.5 nM
C[C@@H]1CN(Cc2ccc(CN3CCc4ccccc43)cc2)C(=O)O1 [Example 301, (5R)-3-[4-(2,3-Dihydro-1H-indol-1-ylmethyl)benzyl]-5-methyl-1,3-oxazolidin-2-one] | 389 nM
O=C1OC(c2cccnc2)CN1Cc1ccc(-c2ccc(F)cc2F)cc1 (stereo not shown) [Example 302, 3-[(2′,4′-Difluorobiphenyl-4-yl)methyl]-5-pyridin-3-yl-1,3-oxazolidin-2-one] | 78.9 nM
O=C1OC(c2cccnc2)CN1Cc1ccc(-c2ccc(OC(F)(F)F)cc2F)cc1 (stereo not shown) [Example 303, 3-{[2′-Fluoro-4′-(trifluoromethoxy)biphenyl-4-yl]methyl}-5-pyridin-3-yl-1,3-oxazolidin-2-one] | 77.7 nM
CCN(C)CC1CN(Cc2ccc(-c3ccc(F)cc3F)cc2)C(=O)O1 (stereo not shown) [Example 304, 3-[(2′,4′-difluorobiphenyl-4-yl)methyl]-5-{[ethyl(methyl)amino]methyl}-1,3-oxazolidin-2-one] | 581 nM
CC(C1CCC1)N1CCN(Cc2ccc(-c3ccc(F)cc3F)cc2)C(=O)C1 (stereo not shown) [Example 306, 4-(1-Cyclobutylethyl)-1-[(2′,4′-difluorobiphenyl-4-yl)methyl]piperazin-2-one] | 327 nM
CN(C)CC1CN(Cc2ccc(-c3ccc(F)cc3F)cc2)C(=O)O1 (stereo not shown) [Example 307, 3-[(2′,4′-difluorobiphenyl-4-yl)methyl]-5-[(dimethylamino)methyl]-1,3-oxazolidin-2-one] | 1360 nM
C[C@@H]1CN(Cc2ccc(-c3ccc(OC(F)F)cc3)nc2)C(=O)O1 [Example 313] | 531 nM
CC1(C)CN(Cc2ccc(-c3ccc(F)cc3F)cc2)C(=O)O1 [Example 314] | 18 nM
CCC1CN(Cc2ccc(-c3ccc(F)cc3F)cc2)C(=O)O1 (stereo not shown) [Example 315] | 41.4 nM
C[C@@H]1CN(Cc2ccc(/C=C/c3ccccc3)cc2)C(=O)O1 [Example 317, (5R)-5-methyl-3-{4-[(E)-2-phenylvinyl]benzyl}-1,3-oxazolidin-2-one] | 36.4 nM
C[C@@H]1CN(Cc2ccc(CCc3ccccc3)cc2)C(=O)O1 [Example 318, (5R)-5-methyl-3-[4-(2-phenylethyl)benzyl]-1,3-oxazolidin-2-one] | 111 nM

Other lines, results leading:

EC50 | SMILES
1460 nM | Cc1ccc(Cl)cc1-c1ccc(CN2C[C@@H](C)OC2=O)cn1 [Example 259]
116 nM | C[C@@H]1CN(Cc2ccc(-c3ccc(Cl)c(Cl)c3)nc2)C(=O)O1 [Example 261]
363 nM | COc1ccc(-c2ccc(CN3C[C@@H](C)OC3=O)cn2)c(F)c1F [Example 262]
561 nM | C[C@@H]1CN(Cc2ccc(-c3ccc4c(c3)CCO4)nc2)C(=O)O1 [Example 264]
562 nM | COc1ccc(Cl)cc1-c1ccc(CN2C[C@@H](C)OC2=O)cn1 [Example 266]
1160 nM | COc1ccc(F)cc1-c1ccc(CN2C[C@@H](C)OC2=O)cn1 [Example 267]
102 nM | C[C@@H]1CN(Cc2ccc(-c3ccc(C(F)(F)F)cc3Cl)nc2)C(=O)O1 [Example 268]
518 nM | C[C@@H]1CN(Cc2ccc(-c3ccc(Cl)cc3Cl)nc2)C(=O)O1 [Example 269]
< 40.1 nM | C[C@@H]1CN(Cc2ccc(-c3ccc(Cl)cc3Cl)cc2)C(=O)O1 [Example 273]
31.3 nM | C[C@@H]1CN(Cc2ccc(-c3ccc(F)cc3Cl)cc2)C(=O)O1 [Example 274]
164 nM | CC(C)Oc1ccc(-c2ccc(CN3C[C@@H](C)OC3=O)cn2)c(Cl)c1 [Example 278]
1290 nM | C[C@@H]1CN(Cc2ccc(NCC3CCCCC3)nc2)C(=O)O1 [Example 283, (5R)-3-({6-[(Cyclohexylmethyl)amino]pyridin-3-yl}methyl)-5-methyl-1,3-oxazolidin-2-one]
309 nM | Cc1cc(CN2C[C@@H](C)OC2=O)ccc1OCc1ccc(C(F)(F)F)cc1 [Example 284, (5R)-5-Methyl-3-(3-methyl-4-{[4-(trifluoromethyl)benzyl]oxy}benzyl)-1,3-oxazolidin-2-one]
217 nM | Cc1cc(CN2C[C@@H](C)OC2=O)ccc1OCc1ccc(F)cc1C(F)(F)F [Example 285, (5R)-3-(4-{[4-fluoro-2-(trifluoromethyl)benzyl]oxy}-3-methylbenzyl)-5-methyl-1,3-oxazolidin-2-one]
32.5 nM | C[C@@H]1CN(Cc2ccc(OCC3CCCCC3)c(Cl)c2)C(=O)O1 [Example 286, (5R)-3-[3-chloro-4-(cyclohexylmethoxy)benzyl]-5-methyl-1,3-oxazolidin-2-one]
174 nM | C[C@@H]1CN(Cc2ccc(OCCC3CCCCC3)c(Cl)c2)C(=O)O1 [Example 287, (5R)-3-[3-chloro-4-(2-cyclohexylethoxy)benzyl]-5-methyl-1,3-oxazolidin-2-one]
59.6 nM | C[C@@H]1CN(Cc2ccc(-c3cccc(Cl)c3F)c(F)c2)C(=O)O1 [Example 291, (5R)-3-[(3′-chloro-2,2′-difluorobiphenyl-4-yl)methyl]-5-methyl-1,3-oxazolidin-2-one]
804 nM | COc1ccc(-c2ccc(CN3C[C@@H](C)OC3=O)cc2F)cn1 [Example 295]
45.5 nM | Cc1cc(CN2C[C@@H](C)OC2=O)ccc1Oc1ncc(Cl)cc1Cl [Example 296, (5R)-3-{4-[(3,5-Dichloropyridin-2-yl)oxy]-3-methylbenzyl}-5-methyl-1,3-oxazolidin-2-one]
1990 nM | C[C@@H]1CN(Cc2ccc(OCC3CCC(NC4CCC4)CC3)cc2)C(=O)O1 (stereo partly drawn) [Example 297, (5R)-3-(4-{[4-(Cyclobutylamino)cyclohexyl]methoxy}benzyl)-5-methyl-1,3-oxazolidin-2-one]
416 nM | C[C@@H]1CN(Cc2ccc(COc3ccc(F)cc3F)cc2)C(=O)O1 [Example 305, (5R)-3-{4-[(2,4-Difluorophenoxy)methyl]benzyl}-5-methyl-1,3-oxazolidin-2-one]
578 nM | C[C@@H]1CN(Cc2ccc(-c3ccc(OC(F)F)cc3Cl)nc2)C(=O)O1 [Example 312]
50.4 nM | C[C@@H]1CN(Cc2ccc(-c3ccc(Cl)cc3OC(F)(F)F)cc2)C(=O)O1 [Example 316]
